Results: ChEMBL document CHEMBL6109078, “Pyrylium derivatives as outer membrane permeabilizers against MDR gram-negative bacteria via multi-target mode of action” (Eur J Med Chem, 2025)
Activity calls are given as the source filed them. The rule behind the calls is not given here.

Columns and labels:
Acinetobacter baumannii [1] = test: Synergistic antibacterial activity against multi-drug resistant Acinetobacter baumannii clinical isolate 1 assessed as inhibition of bacterial growth by measuring polymyxin B MIC by checkerboard assay; format: functional
Bacteria = test: Binding affinity to His-tagged LptA (unknown origin) extracted from Escherichia coli BL21 (DE3) cells by BLI analysis
Acinetobacter baumannii [2] = test: Antibacterial activity against multi-drug resistant Acinetobacter baumannii clinical isolate 4 assessed as inhibition of bacterial growth by CLSI protocol based method; format: functional
Acinetobacter baumannii [3] = test: Synergistic antibacterial activity against Acinetobacter baumannii ATCC 19606 assessed as inhibition of bacterial growth by measuring polymyxin B MIC by checkerboard assay; format: functional
Acinetobacter baumannii [4] = test: Synergistic antibacterial activity against multi-drug resistant Acinetobacter baumannii clinical isolate 5 assessed as inhibition of bacterial growth in presence of polymyxin B by checkerboard assay; format: functional
Acinetobacter baumannii [5] = test: Synergistic antibacterial activity against multi-drug resistant Acinetobacter baumannii clinical isolate 43 assessed as fractional inhibitory concentration index in presence of amikacin by checkerboard assay; format: functional
Acinetobacter baumannii [6] = test: Synergistic antibacterial activity against multi-drug resistant Acinetobacter baumannii clinical isolate 1 assessed as fractional inhibitory concentration index in presence of polymyxin B by checkerboard assay; format: functional
Acinetobacter baumannii [7] = test: Antibacterial activity against Acinetobacter baumannii ATCC 19606 assessed as inhibition of bacterial growth by measuring decrease in bacterial count at 6.25 to 50 microg/ml measured after 12 hrs by time-kill kinetics analysis; format: functional; settings: dose 6.25-50 µg/ml
Escherichia coli [8] = test: Synergistic antibacterial activity against Escherichia coli CG-4 expressing MCR-1 and NDM-1 assessed as fractional inhibitory concentration index in presence of gentamycin by checkerboard assay; format: functional
Escherichia coli [9] = test: Synergistic antibacterial activity against Escherichia coli ATCC 25922 assessed as inhibition of bacterial growth in presence of polymyxin B by checkerboard assay; format: functional
Acinetobacter baumannii [10] = test: Synergistic antibacterial activity against multi-drug resistant Acinetobacter baumannii clinical isolate 14 assessed as inhibition of bacterial growth in presence of polymyxin B by checkerboard assay; format: functional
Acinetobacter baumannii [11] = test: Synergistic antibacterial activity against multi-drug resistant Acinetobacter baumannii clinical isolate 5 assessed as fractional inhibitory concentration index in presence of gentamycin by checkerboard assay; format: functional
Acinetobacter baumannii [12] = test: Synergistic antibacterial activity against Acinetobacter baumannii ATCC 19606 assessed as fractional inhibitory concentration index in presence of amikacin by checkerboard assay; format: functional
Escherichia coli [13] = test: Synergistic antibacterial activity against multi-drug resistant Escherichia coli clinical isolate 1 assessed as inhibition of bacterial growth in presence of polymyxin B by checkerboard assay; format: functional
Escherichia coli [14] = test: Synergistic antibacterial activity against Escherichia coli CG-4 expressing MCR-1 and NDM-1 assessed as inhibition of bacterial growth by measuring polymyxin B MIC by checkerboard assay; format: functional
Acinetobacter baumannii [15] = test: Synergistic antibacterial activity against Acinetobacter baumannii ATCC 19606 assessed as inhibition of bacterial growth in presence of polymyxin B by checkerboard assay; format: functional
Acinetobacter baumannii [16] = test: Synergistic antibacterial activity against multi-drug resistant Acinetobacter baumannii clinical isolate 5 assessed as fractional inhibitory concentration index in presence of polymyxin B by checkerboard assay; format: functional
Acinetobacter baumannii [17] = test: Synergistic antibacterial activity against Acinetobacter baumannii ATCC 19606 assessed as fractional inhibitory concentration index in presence of gentamycin by checkerboard assay; format: functional
Acinetobacter baumannii [18] = test: Synergistic antibacterial activity against multi-drug resistant Acinetobacter baumannii clinical isolate 14 assessed as fractional inhibitory concentration index in presence of amikacin by checkerboard assay; format: functional
Klebsiella pneumoniae [19] = test: Synergistic antibacterial activity against Klebsiella pneumoniae assessed as inhibition of bacterial growth in presence of aminoglycoside by checkerboard assay; format: functional, organism-based
Escherichia coli [20] = test: Synergistic antibacterial activity against Escherichia coli ATCC 35218 assessed as inhibition of bacterial growth by measuring polymyxin B MIC by checkerboard assay; format: functional
Acinetobacter baumannii [21] = test: Synergistic antibacterial activity against multi-drug resistant Acinetobacter baumannii clinical isolate 5 assessed as fractional inhibitory concentration index in presence of amikacin by checkerboard assay; format: functional
Escherichia coli [22] = test: Antibacterial activity against Escherichia coli CG-4 expressing MCR-1 and NDM-1 assessed as inhibition of bacterial growth by CLSI protocol based method; format: functional
Pseudomonas aeruginosa [23] = test: Synergistic antibacterial activity against Pseudomonas aeruginosa assessed as inhibition of bacterial growth in presence of aminoglycoside by checkerboard assay; format: functional, organism-based
Escherichia coli [24] = test: Synergistic antibacterial activity against Escherichia coli ATCC 35218 assessed as fractional inhibitory concentration index in presence of gentamycin by checkerboard assay; format: functional
Acinetobacter baumannii [25] = test: Synergistic antibacterial activity against multi-drug resistant Acinetobacter baumannii clinical isolate 1 assessed as fractional inhibitory concentration index in presence of gentamycin by checkerboard assay; format: functional
Acinetobacter baumannii [26] = test: Antibacterial activity against multi-drug resistant Acinetobacter baumannii clinical isolate 5 assessed as inhibition of bacterial growth by CLSI protocol based method; format: functional
Klebsiella pneumoniae [27] = test: Antibacterial activity against Klebsiella pneumoniae BAA ATCC 1706 assessed as inhibition of bacterial growth by CLSI protocol based method; format: functional
Escherichia coli [28] = test: Synergistic antibacterial activity against Escherichia coli ATCC 35218 assessed as fractional inhibitory concentration index in presence of amikacin by checkerboard assay; format: functional
Escherichia coli [29] = test: Synergistic antibacterial activity against Escherichia coli ATCC 25922 assessed as inhibition of bacterial growth by measuring polymyxin B MIC by checkerboard assay; format: functional
Acinetobacter baumannii [30] = test: Antibacterial activity against multi-drug resistant Acinetobacter baumannii clinical isolate 14 assessed as inhibition of bacterial growth by CLSI protocol based method; format: functional
Acinetobacter baumannii [31] = test: Antibacterial activity against multi-drug resistant Acinetobacter baumannii clinical isolate 43 assessed as inhibition of bacterial growth by CLSI protocol based method; format: functional
Klebsiella pneumoniae [32] = test: Synergistic antibacterial activity against Klebsiella pneumoniae assessed as inhibition of bacterial growth in presence of polymyxin B by checkerboard assay; format: functional, organism-based
Pseudomonas aeruginosa [33] = test: Synergistic antibacterial activity against Pseudomonas aeruginosa assessed as inhibition of bacterial growth in presence of polymyxin B by checkerboard assay; format: functional, organism-based
Acinetobacter baumannii [34] = test: Synergistic antibacterial activity against multi-drug resistant Acinetobacter baumannii clinical isolate 14 assessed as fractional inhibitory concentration index in presence of gentamycin by checkerboard assay; format: functional
Acinetobacter baumannii [35] = test: Synergistic antibacterial activity against Acinetobacter baumannii ATCC 19606 assessed as fractional inhibitory concentration index in presence of polymyxin B by checkerboard assay; format: functional
Acinetobacter baumannii [36] = test: Synergistic antibacterial activity against multi-drug resistant Acinetobacter baumannii clinical isolate 14 assessed as inhibition of bacterial growth by measuring polymyxin B MIC by checkerboard assay; format: functional
Escherichia coli [37] = test: Antibacterial activity against Escherichia coli ATCC 25922 assessed as inhibition of bacterial growth by measuring decrease in bacterial count at 6.25 to 50 microg/ml measured after 12 hrs by time-kill kinetics analysis; format: functional; settings: dose 6.25-50 µg/ml
Klebsiella pneumoniae [38] = test: Antibacterial activity against Klebsiella pneumoniae ATCC 700603 assessed as inhibition of bacterial growth by CLSI protocol based method; format: functional
Acinetobacter baumannii [39] = test: Antibacterial activity against multi-drug resistant Acinetobacter baumannii clinical isolate 1 assessed as inhibition of bacterial growth by CLSI protocol based method; format: functional
Acinetobacter baumannii [40] = test: Antibacterial activity against Acinetobacter baumannii ATCC 19606 assessed as inhibition of bacterial growth by CLSI protocol based method; format: functional

CC(C)(C)c1cc(/C=C/c2ccc(N3CCCC3)cc2)cc(C(C)(C)C)[o+]1.O=S(=O)([O-])C(F)(F)F
MIC (Acinetobacter baumannii [1]): 1.56 µg/mL
Activity (Bacteria): Dose-dependent-effect
MIC (Acinetobacter baumannii [2]): 12.5 µg/mL
MIC (Acinetobacter baumannii [3]): 0.002 µg/mL
MIC (Acinetobacter baumannii [4]): 1.56 µg/mL
fractional inhibitory concentration index (FICI) (Acinetobacter baumannii [5]): 0.125
fractional inhibitory concentration index (FICI) (Acinetobacter baumannii [6]): <0.266
Activity (Acinetobacter baumannii [7]): <6 log10CFU/ml
fractional inhibitory concentration index (FICI) (Escherichia coli [8]): 0.125
MIC (Escherichia coli [9]): 1.56 µg/mL
MIC (Acinetobacter baumannii [10]): 1.56 µg/mL
fractional inhibitory concentration index (FICI) (Acinetobacter baumannii [11]): 0.125
fractional inhibitory concentration index (FICI) (Acinetobacter baumannii [12]): 0.125
MIC (Escherichia coli [13]): 6.25 µg/mL
MIC (Escherichia coli [14]): 0.39 µg/mL
MIC (Acinetobacter baumannii [15]): 1.56 µg/mL
fractional inhibitory concentration index (FICI) (Acinetobacter baumannii [16]): 0.313
fractional inhibitory concentration index (FICI) (Acinetobacter baumannii [17]): 0.125
fractional inhibitory concentration index (FICI) (Acinetobacter baumannii [18]): 0.125
Activity (Klebsiella pneumoniae [19]): inactive
MIC (Escherichia coli [20]): 63 10^-4 ug/ml
fractional inhibitory concentration index (FICI) (Acinetobacter baumannii [21]): 0.125
MIC (Escherichia coli [22]): 6.25 µg/mL
Activity (Pseudomonas aeruginosa [23]): inactive
fractional inhibitory concentration index (FICI) (Escherichia coli [24]): 0.125
fractional inhibitory concentration index (FICI) (Acinetobacter baumannii [25]): 0.125
MIC (Acinetobacter baumannii [26]): 6.25 µg/mL
MIC (Klebsiella pneumoniae [27]): > 100 µg/mL
fractional inhibitory concentration index (FICI) (Escherichia coli [28]): 0.125
MIC (Escherichia coli [29]): 31.25 10^-4 ug/ml
MIC (Acinetobacter baumannii [30]): 6.25 µg/mL
MIC (Acinetobacter baumannii [31]): 12.5 µg/mL
Activity (Klebsiella pneumoniae [32]): inactive
Activity (Pseudomonas aeruginosa [33]): inactive
fractional inhibitory concentration index (FICI) (Acinetobacter baumannii [34]): 0.125
fractional inhibitory concentration index (FICI) (Acinetobacter baumannii [35]): 0.156
MIC (Acinetobacter baumannii [36]): 0.024 µg/mL
Activity (Escherichia coli [37]): <6 log10CFU/ml
MIC (Klebsiella pneumoniae [38]): > 100 µg/mL
MIC (Acinetobacter baumannii [39]): 12.5 µg/mL
MIC (Acinetobacter baumannii [40]): 12.5 µg/mL

CN1CCOc2cc(/C=C/c3cc(C(C)(C)C)[o+]c(C(C)(C)C)c3)ccc21.O=S(=O)([O-])C(F)(F)F
MIC (Acinetobacter baumannii [1]): 0.05 µg/mL
Activity (Bacteria): inactive
MIC (Acinetobacter baumannii [2]): 100 µg/mL
MIC (Acinetobacter baumannii [3]): 0.006 µg/mL
MIC (Acinetobacter baumannii [4]): 6.25 µg/mL
fractional inhibitory concentration index (FICI) (Acinetobacter baumannii [5]): 0.125
fractional inhibitory concentration index (FICI) (Acinetobacter baumannii [6]): <0.126
Activity (Acinetobacter baumannii [7]): <6 log10CFU/ml
fractional inhibitory concentration index (FICI) (Escherichia coli [8]): 0.125
MIC (Escherichia coli [9]): 12.5 µg/mL
MIC (Acinetobacter baumannii [10]): 12.5 µg/mL
fractional inhibitory concentration index (FICI) (Acinetobacter baumannii [11]): 0.125
fractional inhibitory concentration index (FICI) (Acinetobacter baumannii [12]): 0.125
MIC (Escherichia coli [13]): 12.5 µg/mL
MIC (Escherichia coli [14]): 0.031 µg/mL
MIC (Acinetobacter baumannii [15]): 6.25 µg/mL
fractional inhibitory concentration index (FICI) (Acinetobacter baumannii [16]): 0.25
fractional inhibitory concentration index (FICI) (Acinetobacter baumannii [17]): 0.125
fractional inhibitory concentration index (FICI) (Acinetobacter baumannii [18]): 0.125
Activity (Klebsiella pneumoniae [19]): inactive
MIC (Escherichia coli [20]): 63 10^-4 ug/ml
fractional inhibitory concentration index (FICI) (Acinetobacter baumannii [21]): 0.125
MIC (Escherichia coli [22]): 25 µg/mL
Activity (Pseudomonas aeruginosa [23]): inactive
fractional inhibitory concentration index (FICI) (Escherichia coli [24]): 0.125
fractional inhibitory concentration index (FICI) (Acinetobacter baumannii [25]): 0.125
MIC (Acinetobacter baumannii [26]): 50 µg/mL
MIC (Klebsiella pneumoniae [27]): > 100 µg/mL
fractional inhibitory concentration index (FICI) (Escherichia coli [28]): 0.125
MIC (Escherichia coli [29]): 7.8 10^-4 ug/ml
MIC (Acinetobacter baumannii [30]): 100 µg/mL
MIC (Acinetobacter baumannii [31]): 100 µg/mL
Activity (Klebsiella pneumoniae [32]): inactive
Activity (Pseudomonas aeruginosa [33]): inactive
fractional inhibitory concentration index (FICI) (Acinetobacter baumannii [34]): 0.125
fractional inhibitory concentration index (FICI) (Acinetobacter baumannii [35]): 0.25
MIC (Acinetobacter baumannii [36]): 0.012 µg/mL
Activity (Escherichia coli [37]): <6 log10CFU/ml
MIC (Klebsiella pneumoniae [38]): > 100 µg/mL
MIC (Acinetobacter baumannii [39]): 100 µg/mL
MIC (Acinetobacter baumannii [40]): 50 µg/mL
